According to US20260356821A1, “SOLID FORMS OF AN ERBB INHIBITOR” (Black Diamond Therapeutics, Inc., priority 2023, published 2026):
Values after ≈ are worked out from the molar mass of the structure shown. “Also recorded” adds a separate entry of the source.

Columns and labels:
Type in all cases: physicochemical
[1] = Bulk Stability (solid state; HPLC purity, color, XRPD)
Procedure: (§1) X-ray Powder Diffractometer (XRPD): XRPD analysis was performed using a Bruker D8 Advance X-ray powder diffractometer. Analysis was performed using parameters as set forth below.
(§2) High Performance Liquid Chromatograph (HPLC): HPLC analysis was performed using SHIMADZU LC-20AD/Agilent 1260 infinity II Binary Pump. Analysis was performed using parameters as set forth below.
Bulk Stability: Form M was evaluated for bulk stability studies. The bulk stability study was conducted in 3 conditions including 25 °C/92% RH in an open container, 40 °C/75% RH in an open container and 60 °C in a tight container for 1 week, 2 weeks and 4 weeks, respectively.

[2] = Solubility in aqueous media, 37 °C
Procedure: as §1, §2
Solubility: 6.39 mg of the L-malate salt Form M (equal to 4 mg free base) was weighed into an 8 mL vial. 2 mL of aqueous media was added, respectively. The suspension was stirred at 37 °C with 400 rpm for 2 h and 24 h. The suspension was taken out after 2 h and 24 h and then centrifuged at 14,000 rpm for 5 min. The supernatant was analyzed by HPLC. The pH of the supernatant was tested. The solids obtained (wet cakes) were characterized by XRPD. Table 3 summarizes the observation of the solubility study.

[3] = Hygroscopicity by DVS; conditions: 25 °C
Procedure: as §1
Dynamic Vapor Sorption (DVS): DVS analysis was performed using Intrinsic. Analysis was performed using parameters as set forth below.
Hygroscopicity: The hygroscopicity for Form M was examined by DVS.

[4] = Crystallinity after drying under vacuum
Procedure: as §1
To explore further optimization of the crystallinity of the salt, about 25 mg of dry cake were re-equilibrated in 7 different solvents for 3 days. Solids obtained were analyzed by XRPD and 1H-NMR. […]

[5] = 25 °C/92% RH, open container, 1 week
[6] = 40 °C/75% RH, open container, 1 week
[7] = 40 °C/75% RH, open container, 2 weeks
[8] = 40 °C/75% RH, open container, 4 weeks
[9] = 60 °C, tight container, 2 weeks

Compound: CN1C[C@H]2C[C@@]2(C#Cc2cc3ncnc(Nc4cccc(Cl)c4F)c3cc2NC(=O)/C=C/CN2CCOCC2)C1 [Form M, (E)-N-(4-((3-chloro-2-fluorophenyl)amino)-7-(((1R,5S)-3-methyl-3-azabicyclo[3.1.0]hexan-1-yl)ethynyl)quinazolin-6-yl)-4-morpholinobut-2-enamide]
- Bulk (XRPD) [1, 5]: No form change (Agglomeration)
- Color [1, 5]: No change of color
- Color ([1]; 25 °C/92% RH, open container, 2 weeks): No change of color
- Bulk (XRPD) ([1]; 25 °C/92% RH, open container, 2 weeks, no form change after dried under ambient condition): Sticky sample;; also recorded: No form change after dried under ambient
- Color ([1]; 25 °C/92% RH, open container, 4 weeks): No change of color
- Bulk (XRPD) ([1]; 25 °C/92% RH, open container, 4 weeks, no form change after dried under ambient condition): Sticky sample;; also recorded: No form change after dried under ambient
- Bulk (XRPD) [1, 6]: No form change
- Color [1, 6]: No change of color
- Bulk (XRPD) [1, 7]: No form change
- Color [1, 7]: No change of color
- Bulk (XRPD) [1, 8]: No form change
- Color [1, 8]: No change of color
- Bulk (XRPD) ([1]; 60 °C, tight container, 1 week): No form change (Crystallinity decreased)
- Color ([1]; 60 °C, tight container, 1 week): No change of color
- Bulk (XRPD) [1, 9]: No form change (Crystallinity decreased)
- Color [1, 9]: No change of color
- Color ([1]; 60 °C, tight container, 4 weeks): No change of color
- Bulk (XRPD) ([1]; 60 °C, tight container, 4 weeks, (Crystallinity decreased)): No form change; also recorded: (Crystallinity decreased)
- Initial Purity by HPLC ([1]; initial, before storage): 94.0%
- Solubility ([2]; FaSSIF-v1, pH 6.5, 37 °C, 2 h): Degradation
- pH of the supernatant ([2]; FaSSIF-v1, pH 6.5, 37 °C, 2 h): pH 4.9
- Solubility ([2]; FaSSIF-v1, pH 6.5, 37 °C, 24 h): Degradation
- pH of the supernatant ([2]; FaSSIF-v1, pH 6.5, 37 °C, 24 h): pH 4.8
- Solubility ([2]; FeSSIF-v1, pH 5.0, 37 °C, 2 h): Degradation
- pH of the supernatant ([2]; FeSSIF-v1, pH 5.0, 37 °C, 2 h): pH 4.9
- Solubility ([2]; FeSSIF-v1, pH 5.0, 37 °C, 24 h): Degradation
- pH of the supernatant ([2]; FeSSIF-v1, pH 5.0, 37 °C, 24 h): pH 4.8
- pH of the supernatant ([2]; SGF, pH 2.0, 37 °C, 2 h): pH 2.8
- solubility at 2 h ([2]; SGF, pH 2.0, 37 °C, 2 h): > 2000 µg/mL
- pH of the supernatant ([2]; SGF, pH 2.0, 37 °C, 24 h): pH 2.6
- solubility at 24 h ([2]; SGF, pH 2.0, 37 °C, 24 h): > 2000 µg/mL
- pH of the supernatant ([2]; Water, 37 °C, 2 h): pH 4.3
- solubility at 2 h ([2]; Water, 37 °C, 2 h): 1490 µg/mL (≈ 2.65 mM)
- pH of the supernatant ([2]; Water, 37 °C, 24 h): pH 4.3
- solubility at 24 h ([2]; Water, 37 °C, 24 h): 1780 µg/mL (≈ 3.17 mM)
- solubility at 2 h ([2]; aqueous buffer, pH 4.5 (50 mM) acetate buffer, 37 °C, 2 h): > 2000 µg/mL
- solubility at 24 h ([2]; aqueous buffer, pH 4.5 (50 mM) acetate buffer, 37 °C, 24 h): > 2000 µg/mL
- solubility at 2 h ([2]; aqueous buffer, pH 6.8 (50 mM) phosphate buffer, 37 °C, 2 h): 183 µg/mL (≈ 0.326 mM)
- solubility at 24 h ([2]; aqueous buffer, pH 6.8 (50 mM) phosphate buffer, 37 °C, 24 h): 189 µg/mL (≈ 0.336 mM)
- pH of the supernatant ([2]; pH 1.0 (0.1N HCl), 37 °C, 2 h): pH 0.9
- solubility at 2 h ([2]; pH 1.0 (0.1N HCl), 37 °C, 2 h): > 2000 µg/mL
- pH of the supernatant ([2]; pH 1.0 (0.1N HCl), 37 °C, 24 h): pH 0.8
- solubility at 24 h ([2]; pH 1.0 (0.1N HCl), 37 °C, 24 h): > 2000 µg/mL
- pH of the supernatant ([2]; pH 4.5 (50 mM) acetate buffer, 37 °C, 2 h, marked *): pH 4.5*
- pH of the supernatant ([2]; pH 4.5 (50 mM) acetate buffer, 37 °C, 24 h): pH 4.4
- pH of the supernatant ([2]; pH 6.8 (50 mM) phosphate buffer, 37 °C, 2 h): pH 6.2
- pH of the supernatant ([2]; pH 6.8 (50 mM) phosphate buffer, 37 °C, 24 h): pH 6.3
- Desorp. (%) ([3]; 0% RH, first desorption): 0.0%
- Sorp. (%) ([3]; 0% RH, second sorption): 0.0%
- Desorp. (%) ([3]; 10% RH, first desorption): 1.4%
- Sorp. (%) ([3]; 10% RH, second sorption): 0.6%
- Desorp. (%) ([3]; 20% RH, first desorption): 2.5%
- Sorp. (%) ([3]; 20% RH, second sorption): 1.4%
- Desorp. (%) ([3]; 30% RH, first desorption): 3.6%
- Sorp. (%) ([3]; 30% RH, second sorption): 2.2%
- Desorp. (%) ([3]; 40% RH, first desorption): 5.0%
- Sorp. (%) ([3]; 40% RH, first sorption): 4.1%
- Desorp. (%) ([3]; 40% RH, second desorption): 5.2%
- Sorp. (%) ([3]; 40% RH, second sorption): 3.1%
- Desorp. (%) ([3]; 50% RH, first desorption): 6.1%
- Sorp. (%) ([3]; 50% RH, first sorption): 4.4%
- Desorp. (%) ([3]; 50% RH, second desorption): 6.4%
- Sorp. (%) ([3]; 50% RH, second sorption): 4.2%
- Desorp. (%) ([3]; 60% RH, first desorption): 7.4%
- Sorp. (%) ([3]; 60% RH, first sorption): 4.9%
- Desorp. (%) ([3]; 60% RH, second desorption): 7.4%
- Sorp. (%) ([3]; 60% RH, second sorption): 5.6%
- Desorp. (%) ([3]; 70% RH, first desorption): 9.3%
- Sorp. (%) ([3]; 70% RH, first sorption): 5.6%
- Desorp. (%) ([3]; 70% RH, second desorption): 8.7%
- Sorp. (%) ([3]; 70% RH, second sorption): 7.5%
- Desorp. (%) ([3]; 80% RH, first desorption): 13.5%
- Sorp. (%) ([3]; 80% RH, first sorption): 6.9%
- Desorp. (%) ([3]; 80% RH, second desorption): 11.4%
- Sorp. (%) ([3]; 80% RH, second sorption): 9.7%
- Desorp. (%) ([3]; 90% RH, first desorption): 29.5%
- Sorp. (%) ([3]; 90% RH, first sorption): 15.3%
- Desorp. (%) ([3]; 90% RH, second desorption): 20.9%
- Sorp. (%) ([3]; 90% RH, second sorption): 15.8%
- Desorp. (%) ([3]; 95% RH, first desorption): 41.2%
- Sorp. (%) ([3]; 95% RH, first sorption): 41.2%
- Desorp. (%) ([3]; 95% RH, second desorption): 31.5%
- Sorp. (%) ([3]; 95% RH, second sorption): 31.5%
- XRPD after DVS test ([3]; after cycle 40-95-0-95-40% RH): No form change
- DVS ([3]; at 70% RH): 1.5% at 70% RH
- DVS ([3]; at 95% RH): 37.1% at 95% RH
- crystallinity after drying [4]: crystallinity decreased
